From patent publication US20060167110A1 (priority 1995, published 2006)
Several values for one entry are separate records, joined by “and”; a condition that tells them apart may be missing. Identical values can stand only once.

How the values were obtained:
dopamine uptake system = target: T1, dopamine uptake system (Rattus norvegicus, UniProt P23977); assay: Inhibition of tritiated dopamine uptake in rat neostriatal nerve-terminal (synaptosome) preparation; type: biochemical
T1 construct: An in vitro nerve-terminal preparation (symptosome-preparation) was obtained from fresh rat neostriatal brain tissue; from tissue; host or cells: rat neostriatal synaptosomes
T1 sequence (P23977 whole entry): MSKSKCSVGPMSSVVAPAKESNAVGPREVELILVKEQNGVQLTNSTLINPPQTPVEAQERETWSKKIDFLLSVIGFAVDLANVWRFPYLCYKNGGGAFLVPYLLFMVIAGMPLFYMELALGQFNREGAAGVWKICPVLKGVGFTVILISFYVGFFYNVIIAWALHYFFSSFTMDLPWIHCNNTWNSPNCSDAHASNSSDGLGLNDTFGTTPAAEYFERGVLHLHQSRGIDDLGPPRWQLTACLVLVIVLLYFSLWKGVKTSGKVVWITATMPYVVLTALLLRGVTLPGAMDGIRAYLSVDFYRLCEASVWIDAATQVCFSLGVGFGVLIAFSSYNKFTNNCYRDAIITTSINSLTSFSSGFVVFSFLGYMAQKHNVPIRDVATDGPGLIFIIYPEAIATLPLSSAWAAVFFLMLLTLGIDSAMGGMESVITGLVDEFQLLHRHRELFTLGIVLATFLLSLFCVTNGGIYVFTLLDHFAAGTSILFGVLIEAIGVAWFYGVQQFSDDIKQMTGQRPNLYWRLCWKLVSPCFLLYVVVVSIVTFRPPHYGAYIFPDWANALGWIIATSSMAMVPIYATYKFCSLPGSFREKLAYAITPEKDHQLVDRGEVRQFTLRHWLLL
Method: An in vitro nerve terminal preparation (synaptosome preparation) was prepared using fresh rat neostriatal tissue.
Transport by dopamine nerve-terminals was estimated by measuring the uptake of tritiated dopamine.

MAO-B [1] = target: T2, MAO-B (Cavia porcellus, UniProt P58028); assay: MAO-B inhibition in guinea pig hippocampal homogenates in vitro; type: biochemical; details: for IC50: IC50 Values for the Inhibition of MAO-B, Guinea Pig Hippocampal Cortex; for reduction in potency compared to selegiline, MAO-B, Guinea Pig Hippocampal Cortex: figure in parentheses
T2 construct: MAO-B (^14C-phenylethylamine) by human platelets and guinea pig hippocampal homogenates; from tissue; host or cells: guinea pig hippocampal homogenates
T2 sequence (P58028 1-520): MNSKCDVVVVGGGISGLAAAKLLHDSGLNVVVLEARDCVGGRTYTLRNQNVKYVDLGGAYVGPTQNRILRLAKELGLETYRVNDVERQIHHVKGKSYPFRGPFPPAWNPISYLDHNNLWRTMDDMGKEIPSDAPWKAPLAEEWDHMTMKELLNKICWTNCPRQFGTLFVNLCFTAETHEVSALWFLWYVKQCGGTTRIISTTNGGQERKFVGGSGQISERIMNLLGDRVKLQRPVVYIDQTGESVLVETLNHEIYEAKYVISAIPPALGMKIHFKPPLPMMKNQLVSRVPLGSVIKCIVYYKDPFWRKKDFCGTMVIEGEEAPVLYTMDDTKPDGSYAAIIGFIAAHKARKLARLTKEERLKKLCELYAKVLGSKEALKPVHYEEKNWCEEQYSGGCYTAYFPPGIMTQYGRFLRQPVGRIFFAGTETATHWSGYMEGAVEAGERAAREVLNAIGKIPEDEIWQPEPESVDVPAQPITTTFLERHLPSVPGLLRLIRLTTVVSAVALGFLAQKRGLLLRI
Source text: (§1) Human platelet MAO is comprised exclusively of the type-B isoform of the enzyme. […] The present study also examined the two enantiomers of DMS for inhibitory activity with respect to the MAO-A and MAO-B in guinea pig hippocampal tissue. Guinea pig brain tissue is an excellent animal model for studying brain dopamine metabolism, the enzyme kinetics of the multiple forms of MAO and the inhibitory properties of novel agents that interact with these enzymes. The multiple forms of MAO in this animal species show similar kinetic properties to those found in human brain tissue. Finally, the test agents were administered to guinea pigs and the extent to which they might act as inhibitors of brain MAO in vivo was assessed.
(§2) In vitro: The test system utilized the in vitro conversion of specific substrates of MAO-A (^14C-serotonin) in guinea pig hippocampal homogenates or MAO-B (^14C-phenylethylamine) by human platelets and guinea pig hippocampal homogenates. […] A percent inhibition was calculated from these values.

[2] = tested on: rat embryonic mesencephalic cells; assay: [3H]dopamine uptake, medium change (glutamate receptor dependent) model of cell death
Method: Preparations are then added to 10 ml Ecoscint (National Diagnostics) and counted in a scintillation spectrometer.
(§3) In these experiments, cells were plated and allowed to stabilize for several days.

[3] = tested on: rat embryonic mesencephalic cells; assay: TH positive cell survival, medium change (glutamate receptor dependent) model of cell death
Method: as §3

[4] = tested on: cultured rat mesencephalic cells; assay: TH immunochemistry after 100 μM NMDA exposure
Method: Rat mesencephalic cell cultures were exposed to 100 μM NMDA and incubated as described above in connection with FIG. 16.

MAO-B [5] = target: T2, MAO-B; assay: In vivo brain MAO-B inhibition in guinea pig hippocampus after 5 daily s.c. doses; details: preliminary studies
Method: FIG. 20: In vivo MAO-B Inhibition in Guinea Pig Hippocampus. […] Animals were then sacrificed and the MAO-B activity in the hippocampus portion of the brain was determined. […] The plots were used to estimate the ID50 dosage for each agent.
Each enantiomer of DMS was administered in vivo by subcutaneous injection once a day for five consecutive days, and inhibition of brain MAO-B activity was then determined.

MAO-A [6] = target: T3, MAO-A (Cavia porcellus, UniProt H0UVA2); assay: MAO-A inhibition in guinea pig hippocampal homogenates in vitro; type: biochemical; parameters: specific substrates of MAO-A (^14C-serotonin) in guinea pig hippocampal homogenates; from tissue; host or cells: guinea pig hippocampal homogenates; details: for reduction in potency compared to selegiline, MAO-A: figure in parentheses, times less potent
T3 sequence (H0UVA2 1-461): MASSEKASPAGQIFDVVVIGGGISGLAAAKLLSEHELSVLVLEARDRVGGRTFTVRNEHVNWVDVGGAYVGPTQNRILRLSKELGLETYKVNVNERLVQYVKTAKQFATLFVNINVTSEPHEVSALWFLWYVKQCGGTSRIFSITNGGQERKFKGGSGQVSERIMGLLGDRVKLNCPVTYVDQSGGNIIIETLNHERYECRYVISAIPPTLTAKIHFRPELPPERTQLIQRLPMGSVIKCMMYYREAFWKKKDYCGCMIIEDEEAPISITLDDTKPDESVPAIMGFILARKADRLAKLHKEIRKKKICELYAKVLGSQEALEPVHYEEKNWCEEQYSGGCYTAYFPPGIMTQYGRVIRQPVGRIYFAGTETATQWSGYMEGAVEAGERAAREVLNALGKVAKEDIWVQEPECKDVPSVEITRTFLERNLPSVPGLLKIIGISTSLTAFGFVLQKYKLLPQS
Source text: as §1, §2

MAO-A [7] = target: T3, MAO-A; assay: In vivo MAO-A inhibition in guinea pig cortex (hippocampus) after 5 s.c. treatments; details: sc, read-out: inhibition of MAO-A activity
Method: Hippocampal homogenates containing enzyme were prepared, and assays in vitro for MAO-A and MAO-B activity.

MAO-A [8] = target: T4, MAO-A (Rattus norvegicus, UniProt P21396); assay: MAO-A inhibition in rat brain tissue; type: biochemical; parameters: from tissue; host or cells: rat cortex mitochondrial-rich fractions
T4 sequence (P21396 1-526): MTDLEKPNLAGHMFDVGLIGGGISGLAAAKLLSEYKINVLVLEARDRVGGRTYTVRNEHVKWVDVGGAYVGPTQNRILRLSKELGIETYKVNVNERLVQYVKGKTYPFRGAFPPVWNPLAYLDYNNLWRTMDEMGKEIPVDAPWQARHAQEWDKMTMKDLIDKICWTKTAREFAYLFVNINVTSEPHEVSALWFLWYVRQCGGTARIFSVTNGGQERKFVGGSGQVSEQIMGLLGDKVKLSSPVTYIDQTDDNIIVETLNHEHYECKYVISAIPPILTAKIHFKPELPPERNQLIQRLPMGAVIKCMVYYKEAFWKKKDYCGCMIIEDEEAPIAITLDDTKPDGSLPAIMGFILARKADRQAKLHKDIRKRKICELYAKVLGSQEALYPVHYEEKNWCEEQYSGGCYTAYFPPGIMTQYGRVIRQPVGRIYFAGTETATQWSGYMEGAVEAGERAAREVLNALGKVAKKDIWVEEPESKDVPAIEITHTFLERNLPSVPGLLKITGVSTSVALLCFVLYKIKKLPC

cerebral infarction = details: given orally; patients with subarachnoid hemorrhage and cerebral vasospasm; cited from earlier work

## C#CCNC(C)Cc1ccccc1 (single isomer, unassigned) [S(+)DMS, S(+)-desmethylselegiline]
Dopamine uptake system
  times more potent than either selegiline or R(−)DMS in inhibiting dopamine uptake: 4-5 times
MAO-B [1]
  IC50: 1.2 µM
  reduction in potency compared to selegiline, MAO-B, Guinea Pig Hippocampal Cortex: 1200 nM (1200)
MAO-B [1]; read-out: MAO-B % Inhibition 0 ± SEM, Concentration 300 nM
  inhibition at 0.3 µM: 18.7 ± 2.1%
MAO-B [1]; read-out: MAO-B % Inhibition 0 ± SEM, Concentration 3 μM
  inhibition at 3 µM: 77.1 ± 6%
[2]; 0.5 μM, Mean
  Dopamine uptake, % control: 167.2 % control
  Dopamine uptake, counts/min: 35115.5 counts/min
[2]; 0.5 μM, single sample
  Dopamine uptake, % control: 170.6 % control and 152.8 % control and 157.4 % control and 188.2 % control
  Dopamine uptake, counts/min: 35830 counts/min and 32074 counts/min and 33042 counts/min and 39516 counts/min
[2]; 5.0 μM, Mean
  Dopamine uptake, % control: 180.5 % control
  Dopamine uptake, counts/min: 37889.75 counts/min
[2]; 5.0 μM, single sample
  Dopamine uptake, % control: 171.3 % control and 173.7 % control and 181.7 % control and 195.1 % control
  Dopamine uptake, counts/min: 35976 counts/min and 36476 counts/min and 38143 counts/min and 40964 counts/min
[2]; 50 μM, Mean
  Dopamine uptake, % control: 157.3 % control
  Dopamine uptake, counts/min: 33016.75 counts/min
[2]; 50 μM, single sample
  Dopamine uptake, % control: 123.8 % control and 177.7 % control and 146.3 % control and 181.1 % control
  Dopamine uptake, counts/min: 26002 counts/min and 37320 counts/min and 30725 counts/min and 38020 counts/min
[3]; 0.5 μM, Mean
  TH positive cells, % control: 143.5 % control
  TH positive cells, cells/cm^2: 403.1 cells/cm^2
[3]; 0.5 μM, single sample
  TH positive cells, % control: 152.7 % control and 125.2 % control
  TH positive cells, cells/cm^2: 402.5 cells/cm^2 and 330.0 cells/cm^2 and 477.5 cells/cm^2
[3]; 5.0 μM, Mean
  TH positive cells, % control: 130.6 % control
  TH positive cells, cells/cm^2: 344.4 cells/cm^2
[3]; 5.0 μM, single sample
  TH positive cells, % control: 129.9 % control and 135.6 % control and 123.3 % control and 133.7 % control
  TH positive cells, cells/cm^2: 342.5 cells/cm^2 and 357.5 cells/cm^2 and 325.0 cells/cm^2 and 352.5 cells/cm^2
[3]; 50 μM, Mean
  TH positive cells, % control: 109.8 % control
  TH positive cells, cells/cm^2: 289.4 cells/cm^2
[3]; 50 μM, single sample
  TH positive cells, % control: 116.6 % control and 94.8 % control and 118.5 % control and 109.1 % control
  TH positive cells, cells/cm^2: 307.5 cells/cm^2 and 250.0 cells/cm^2 and 312.5 cells/cm^2 and 287.5 cells/cm^2
[4]; 0.5 μM, Mean
  TH positive cells, % control: 182.3 % control
  TH positive cells, cells/cm^2: 171.67 cells/cm^2
[4]; 0.5 μM, single sample
  TH positive cells, % control: 135.4 % control and 223.0 % control and 188.5 % control
  TH positive cells, cells/cm^2: 127.5 cells/cm^2 and 210 cells/cm^2 and 177.5 cells/cm^2
[4]; 5.0 μM, Mean
  TH positive cells, % control: 197.8 % control
  TH positive cells, cells/cm^2: 186.25 cells/cm^2
[4]; 5.0 μM, single sample
  TH positive cells, % control: 204.4 % control and 199.1 % control and 183.2 % control
  TH positive cells, cells/cm^2: 192.5 cells/cm^2 and 187.5 cells/cm^2 and 172.5 cells/cm^2
[4]; 50 μM, Mean
  TH positive cells, % control: 276.1 % control
  TH positive cells, cells/cm^2: 260 cells/cm^2
[4]; 50 μM, single sample
  TH positive cells, % control: 315.9 % control and 215.0 % control and 337.2 % control and 236.3 % control
  TH positive cells, cells/cm^2: 297.5 cells/cm^2 and 202.5 cells/cm^2 and 317.5 cells/cm^2 and 222.5 cells/cm^2
MAO-B [5]
  times less potent than selegiline, brain MAO-B in vivo: about 10 times
MAO-A [6]; Concentration 1 nM
  MAO-A % Reduction 0 ± SEM: 92.7 ± 2.5%
MAO-A [6]; Concentration 10 nM
  MAO-A % Reduction 0 ± SEM: 99.6 ± 0.35%
MAO-A [6]; Concentration 1 μM
  MAO-A % Reduction 0 ± SEM: 3.3 + 1.5%
MAO-A [6]; Concentration 3 μM
  MAO-A % Reduction 0 ± SEM: 4.3 ± 1.0%
MAO-A [6]; Concentration 10 μM
  MAO-A % Reduction 0 ± SEM: 10.5 ± 1.47%
MAO-A [6]; Concentration 100 μM
  MAO-A % Reduction 0 ± SEM: 48.4 ± 1.8%
MAO-A [6]
  reduction in potency compared to selegiline, MAO-A: 40

## C#CCNC(C)Cc1ccccc1 (single isomer, unassigned) [R(−)DMS, R(−)-desmethylselegiline]
MAO-A [7]
  inhibition at 3 mg/kg: 29.8%
MAO-B [1]
  IC50: 0.06 µM
  reduction in potency compared to selegiline, MAO-B, Guinea Pig Hippocampal Cortex: 60 nM (60)
[2]; 5 μM
  neuron protection by measurement of dopamine uptake (FIG. 15): neuron protection
[2]; 10 μM, medium change model
  more axonal growth and terminal axonal survival compared to untreated control cells: 40%
[2]; 50 μM
  neuron protection by measurement of dopamine uptake (FIG. 15): neuron protection
MAO-A [8]
  IC50: 70 µM
MAO-A [8]; in vitro, rat brain tissue
  times less potent than selegiline in inhibiting MAO-A: approximately 39 times
MAO-B [5]
  times less potent than selegiline, brain MAO-B in vivo: about 10 times
MAO-A [6]
  IC50: 50 µM
  reduction in potency compared to selegiline, MAO-A: 20
MAO-A [6]; Concentration 300 nM
  MAO-A % Reduction 0 ± SEM: 4.8 ± 2.1%
MAO-A [6]; Concentration 1 μM
  MAO-A % Reduction 0 ± SEM: 4.2 ± 1.5%
MAO-A [6]; Concentration 3 μM
  MAO-A % Reduction 0 ± SEM: 10.5 ± 2.0%
MAO-A [6]; Concentration 10 μM
  MAO-A % Reduction 0 ± SEM: 19.0 ± 1.3%
MAO-A [6]; Concentration 100 μM
  MAO-A % Reduction 0 ± SEM: 64.2 ± 1.5%
MAO-A [6]; Concentration 1 mM
  MAO-A % Reduction 0 ± SEM: 96.5 + 1.2%

## C#CCN(C)Cc1ccccc1 [Pargyline, pargyline, reference compound]
[2]; at the concentrations used (0.5, 5 and 50 μM)
  neuron protection by measurement of dopamine uptake (FIG. 15): did not appear to offer any protection

## C[C@]12N[C@H](Cc3ccccc31)c1ccccc12 [MK-801, reference compound]
[2]; 10 μM
  neuron protection by measurement of dopamine uptake (FIG. 15): protection was also obtained

## COCCOC(=O)C1=C(C)NC(C)=C(C(=O)OC(C)C)C1c1cccc([N+](=O)[O-])c1 (stereo not shown) [Nimodipine]
Cerebral infarction
  incidence of cerebral infarction: lower by one third

## C#CCN(C)CCCOc1ccc(Cl)cc1Cl [clorgyline, reference compound]
[2]; 50 μM
  neuron protection by measurement of dopamine uptake (FIG. 15): protected
